Results as given in patent publication US20120129872A1, “FUSED HETEROARYL INHIBITORS OF PRO-MATRIX METALLOPROTEINASE ACTIVATION” (priority 2010, published 2012).

How the values were obtained:
MMP9 = target: T1, MMP9 (Homo sapiens, UniProt P14780); test: Activation of proMMP9 by human fetal lung fibroblast (HFL-1) cultures (Western blot); format: cell-based; details: 3.3 μM, HFL-1, mAb-L51/82
T1 construct: host or cells: HFL-1 human fetal lung fibroblasts
Procedure: Activation of proMMP9 by human fetal lung fibroblast cultures Compound-α was assessed additionally for ability to block the maturation of proMMP9 to active MMP9 in cultures of human fetal lung fibroblasts (HFL-1, American Type Culture Collection #CCL-153). Unlike rat synoviocytes, HFL-1 cells were unable to process proMMP9 to the active form without addition of neutrophil elastase. […] Rather, the function of elastase in this assay may be to inactivate tissue inhibitors of matrix metalloproteinases (TIMPs) that repress endogenous pathways of MMP9 activation (Am J Respir Crit. Care Med; 1999; 159:1138-46).
HLF-1 were maintained in monolayer culture in DMEM with 10% FCS and were used between passage numbers 5-15. HLF-1 were embedded in collagen gels as described for rat SCW synoviocytes (vida supra). Half mL gels containing 0.4 million cells were dislodged into wells of 12 well Costar plates containing 1 mL/well of DMEM adjusted to contain 0.05% BSA and 100 ng/mL human TNFα (R&D Systems Cat #210-TA/CF). After overnight culture (37° C. and 5% CO2) wells were adjusted to contain an additional 0.5 mL of DMEM containing 0.05% BSA and with or without 13.2 μM Compound-α (final concentration was 3.3 μM Compound-α). Next, cultures were adjusted to contain 30 nM human elastase (Innovative Research). The plates were cultured an additional 72 hrs, at which time MMP9 secreted into the conditioned media was bound to gelatin-sepharose and evaluated by Western blot analysis as described for the rat synoviocyte cultures (vida supra). mAb-51/82 detected three forms of MMP9 in HFL-1 cultures.
These included a form of approximately 100 kD with mobility similar to recombinant rat proMMP9, an approximately 80 kD form with mobility similar to rat active MMP9, and an approximately 86 kD intermediate form. In the absence of Compound-α, most of the MMP9 was present as the 80 kD form. In the presence of Compound-α, the 80 kD form was a minor fraction of the total signal while nearly half of the signal were contributed each by the 100 kD and 86 kD forms. […]
A second experiment was performed to determine if the 80 kD form was mature active MMP9 and to determine the potency of Compound-α as an inhibitor of MMP9 maturation in this assay. HFL-1 cells embedded in collagen gels were cultured as described above in the presence of TNFα overnight and the cultures were then adjusted to contain 30 nM elastase and graded concentrations of Compound-α for an additional 72 hrs at which time MMP9 secreted into the conditioned media was bound to gelatin-sepharose and evaluated by Western blot analysis for active MMP9 using pAb-1246 raised against the N-terminal neoepitope of active MMP9 (Table 5). In the absence of Compound-α, pAb-1246 readily detected MMP9 with an electrophoretic mobility of approximately 80 kD. […]

[1] = target: T2, MMP9 mediated gelatinase activity (Rattus norvegicus, UniProt P50282); test: In situ zymography of gelatinase activity in livers of SCW-induced rats; format: in vivo; details: for Intensity, Rat 1 / Intensity, Rat 2 / Intensity, Rat 3 / Intensity, Mean: liver
T2 construct: from tissue; host or cells: liver sections of female Lewis rats
T2 sequence (P50282 108-708): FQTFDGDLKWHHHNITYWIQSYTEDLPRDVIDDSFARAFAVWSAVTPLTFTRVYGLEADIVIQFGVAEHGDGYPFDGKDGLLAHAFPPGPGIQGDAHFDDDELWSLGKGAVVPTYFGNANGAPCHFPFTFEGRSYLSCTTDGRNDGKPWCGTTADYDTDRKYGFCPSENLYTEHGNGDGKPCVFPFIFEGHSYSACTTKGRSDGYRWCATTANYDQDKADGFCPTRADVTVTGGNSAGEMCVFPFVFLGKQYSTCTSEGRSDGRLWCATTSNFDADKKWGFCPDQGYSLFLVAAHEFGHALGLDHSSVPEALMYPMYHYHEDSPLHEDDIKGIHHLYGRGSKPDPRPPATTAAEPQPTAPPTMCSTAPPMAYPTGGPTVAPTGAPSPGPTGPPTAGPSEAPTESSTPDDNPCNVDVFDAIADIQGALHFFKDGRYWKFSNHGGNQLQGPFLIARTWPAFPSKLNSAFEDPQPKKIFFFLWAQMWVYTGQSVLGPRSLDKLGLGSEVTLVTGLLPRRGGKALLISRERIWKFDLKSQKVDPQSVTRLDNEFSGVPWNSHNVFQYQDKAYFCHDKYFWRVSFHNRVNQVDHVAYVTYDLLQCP
Text: In situ zymography provides an alternative approach to assess active MMP9 in tissues (Frederiks). Tissue sections are overlain with fluorescene-conjugated gelatin wherein the conjugation is sufficiently dense to cause the fluorescene to be dye-quenched (DQ). Proteolytic degradation of the DQ-gelatin releases the fluorescene from the quenching effect giving rise to bright green fluorescence at the site of degradation. Because in situ zymography requires the use of frozen sections, calcified tissues are problematic. However, an additional feature of the SCW arthritis model is the development of hepatic granulomatous disease (J Immunol; 1986; 137:2199-2209), and MMP9 reportedly plays a role in macrophage recruitment in the granulomas response to mycobacteria (Infect Immun; 2006; 74:6135-6144). Consequently, granulomatous livers from SCW-treated rats were assessed for active MMP9 by in situ zymography.
As described above, Female Lewis (LEW/N) rats, 5-6 weeks of age (80-100 g) were injected (i.p.) with saline or SCW PG-PS. On day 28, when the granulomatous response was well established, animals were sacrificed and livers were frozen in OCT cryo-sectioning medium and […] sections were cut on a Cryome HM 500 M cryotome and mounted on glass microscope slides. Sections were air dried briefly. MMP9 was confirmed as the source of the gelatinase activity in the liver by treating liver sections with monoclonal antibodies directed against the active site of the two major gelatinases MMP9 and MMP2. Liver sections overlain with 50 μL of 100 μg/mL neutralizing mouse monoclonal antibodies directed against MMP9 (Calbiochem, clone 6-6B), or MMP2 (Millipore, clone CA-4001), or with PBS for 1 hr at room temperature. Tissues were rinsed once with PBS, blotted, and briefly air dried and then overlain with DQ-gelatin (Invitrogen) dissolved to 1 mg/mL in deionized water and then diluted 1:10 in 1% wt/vol low gelling point agarose type VII (Sigma) in PBS. The sections were covered with coverslips, incubated in the dark at room temperature for 20 min, and imaged on an Olympus IX80 inverted microscope fitted with fluorescence optics, using SlideBook™ imaging software (Intelligent Imaging Innovations, Inc., Philadelphia, Pa.; version 5.0). Fluorescence intensity was determined (Table 8). When compared to a saline-treated rat, gelatinase activity was abundantly expressed in granulomatous liver sections obtained from a rat with SCW arthritis.
Next, liver in situ zymography was used to assess the relative presence of active MMP9 in rats dosed with vehicle vs. Compound-α. Female Lewis (LEW/N) rats, 5-6 weeks of age (80-100 g) were injected (i.p.) with saline or SCW PG-PS. Commencing on day 25, randomized groups of rats (n=3 rats/group) received vehicle or 20 or 50 mg/kg Compound-α BID by oral gavage. Vehicle consisted of an aqueous mixture containing 2% (v:v) N-methylpyrrolidone, 5% (v:v) glycerine, and 20% (w:v) captisol. Treatment continued daily through the morning of day 28. Four hrs after the AM dose on day 28, rats were sacrificed and livers assessed for active MMP9 by in situ zymography (Table 9). Gelatinase activity was increased markedly in SCW-induced rats, but activity was reduced by approximately 80% in animals treated with 50 mg/kg Compound-α.

T1 sequence (P14780 94-707): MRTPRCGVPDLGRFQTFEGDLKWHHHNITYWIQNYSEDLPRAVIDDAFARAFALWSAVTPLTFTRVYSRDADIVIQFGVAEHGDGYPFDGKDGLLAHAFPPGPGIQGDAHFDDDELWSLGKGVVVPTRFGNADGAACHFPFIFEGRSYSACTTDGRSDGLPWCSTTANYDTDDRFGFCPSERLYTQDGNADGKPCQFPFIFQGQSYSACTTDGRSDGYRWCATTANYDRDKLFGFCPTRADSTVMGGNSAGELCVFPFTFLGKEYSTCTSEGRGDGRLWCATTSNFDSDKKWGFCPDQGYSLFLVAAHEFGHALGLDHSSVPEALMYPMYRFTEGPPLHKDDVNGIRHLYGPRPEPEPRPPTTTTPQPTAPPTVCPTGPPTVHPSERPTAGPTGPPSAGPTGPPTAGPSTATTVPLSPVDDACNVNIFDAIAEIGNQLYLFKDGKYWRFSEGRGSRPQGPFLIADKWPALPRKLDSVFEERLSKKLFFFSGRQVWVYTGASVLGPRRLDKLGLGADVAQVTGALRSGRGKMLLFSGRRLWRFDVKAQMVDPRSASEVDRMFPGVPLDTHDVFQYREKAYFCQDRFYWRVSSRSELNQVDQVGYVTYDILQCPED

Percent of total signal, 80 kD (MMP9): 7% | Percent of total signal, 86 kD (MMP9): 47% | Percent of total signal, 100 kD (MMP9): 46% | Signal, Total (MMP9): 91346 INT * mm^2 | Reduction of liver gelatinase activity ([1]; 50 mg/kg BID Day 25-28): approximately 80% | Intensity, Rat 1 ([1]; 20 mg/kg BID Day 25-28): 43.0 RLU × 10^6 | Intensity, Rat 2 ([1]; 20 mg/kg BID Day 25-28): 69.0 RLU × 10^6 | Intensity, Rat 3 ([1]; 20 mg/kg BID Day 25-28): 53.7 RLU × 10^6 | Intensity, Mean ([1]; 20 mg/kg BID Day 25-28, n=3): 55.2 RLU × 10^6 | Intensity, Rat 1 ([1]; 50 mg/kg BID Day 25-28): 3.2 RLU × 10^6 | Intensity, Rat 2 ([1]; 50 mg/kg BID Day 25-28): 25.6 RLU × 10^6 | Intensity, Rat 3 ([1]; 50 mg/kg BID Day 25-28): 4.5 RLU × 10^6 | Intensity, Mean ([1]; 50 mg/kg BID Day 25-28, n=3): 11.1 RLU × 10^6
Compound: Cc1nc(C)c(-c2csc(Nc3cc(S(N)(=O)=O)ccc3OC(C)C)n2)s1 [Compound-α, 3-(2′,4′-Dimethyl-[4,5′]bithiazolyl-2-ylamino)-4-isopropoxy-benzenesulfonamide•HBr]
